The term AC50 denotes the midpoint of the concentration-response curve, whichever way the signal moves. A low value points to greater potency.

Results on three compounds are retold here after ChEMBL document CHEMBL5291721, “A preclinical secondary pharmacology resource illuminates target-adverse drug reaction associations of marketed drugs” (Nat Commun, 2023).

SMILES strings stand for the structures. Where “and” joins values, the source holds several entries; their conditions need not be identical. Identical values can stand only once.

Some targets named below: Mu-type opioid receptor (Homo sapiens, UniProt P35372); Cannabinoid receptor 1 (Homo sapiens, UniProt P21554); Melanocortin receptor 4 (Homo sapiens, UniProt P32245).
In assay [1] the target is T1, Cholecystokinin receptor type A (Homo sapiens, UniProt P32238).
T1 sequence (P32238 whole entry): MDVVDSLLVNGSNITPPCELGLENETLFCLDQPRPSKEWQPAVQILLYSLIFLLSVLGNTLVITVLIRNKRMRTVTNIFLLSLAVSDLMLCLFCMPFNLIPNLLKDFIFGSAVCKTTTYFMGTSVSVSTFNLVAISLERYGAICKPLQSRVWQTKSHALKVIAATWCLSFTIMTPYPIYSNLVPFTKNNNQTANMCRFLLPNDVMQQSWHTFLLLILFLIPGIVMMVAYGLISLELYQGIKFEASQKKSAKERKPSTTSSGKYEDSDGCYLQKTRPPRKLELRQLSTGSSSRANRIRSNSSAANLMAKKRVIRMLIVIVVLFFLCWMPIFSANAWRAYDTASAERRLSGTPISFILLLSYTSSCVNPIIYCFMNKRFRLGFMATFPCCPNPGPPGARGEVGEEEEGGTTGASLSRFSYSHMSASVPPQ

Assay [2] has as its target Sodium-dependent serotonin transporter (Homo sapiens, UniProt P31645).
Assay [3] has as its target T2, Alpha-1A adrenergic receptor (Homo sapiens, UniProt P35348).
T2 sequence (P35348 whole entry): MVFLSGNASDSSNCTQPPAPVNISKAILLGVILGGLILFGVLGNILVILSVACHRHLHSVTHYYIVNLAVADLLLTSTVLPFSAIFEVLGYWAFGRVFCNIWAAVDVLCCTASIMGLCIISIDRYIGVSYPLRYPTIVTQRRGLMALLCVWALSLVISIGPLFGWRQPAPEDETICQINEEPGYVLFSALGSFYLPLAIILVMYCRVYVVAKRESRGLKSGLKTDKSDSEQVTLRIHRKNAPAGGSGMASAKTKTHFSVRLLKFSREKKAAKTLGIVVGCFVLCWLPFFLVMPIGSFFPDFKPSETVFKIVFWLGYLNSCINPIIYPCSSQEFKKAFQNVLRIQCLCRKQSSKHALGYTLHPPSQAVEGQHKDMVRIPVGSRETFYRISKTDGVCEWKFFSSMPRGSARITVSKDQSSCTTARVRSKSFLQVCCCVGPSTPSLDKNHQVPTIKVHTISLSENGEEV

The target of a further assay is T3, Thromboxane A2 receptor (Homo sapiens, UniProt P21731).
T3 sequence (P21731 whole entry): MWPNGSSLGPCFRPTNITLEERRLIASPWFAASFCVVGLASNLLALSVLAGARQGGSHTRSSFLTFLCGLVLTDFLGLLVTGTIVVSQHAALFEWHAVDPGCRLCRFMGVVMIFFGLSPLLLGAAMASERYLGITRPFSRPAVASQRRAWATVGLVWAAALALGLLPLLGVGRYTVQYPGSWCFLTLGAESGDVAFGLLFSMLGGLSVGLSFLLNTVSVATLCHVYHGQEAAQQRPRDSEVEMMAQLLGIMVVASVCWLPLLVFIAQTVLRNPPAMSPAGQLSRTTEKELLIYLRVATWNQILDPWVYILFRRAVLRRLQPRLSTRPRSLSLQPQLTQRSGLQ

The target of assay [4] is T4, 5-hydroxytryptamine receptor 3A (Homo sapiens, UniProt P46098).
T4 sequence (P46098 whole entry): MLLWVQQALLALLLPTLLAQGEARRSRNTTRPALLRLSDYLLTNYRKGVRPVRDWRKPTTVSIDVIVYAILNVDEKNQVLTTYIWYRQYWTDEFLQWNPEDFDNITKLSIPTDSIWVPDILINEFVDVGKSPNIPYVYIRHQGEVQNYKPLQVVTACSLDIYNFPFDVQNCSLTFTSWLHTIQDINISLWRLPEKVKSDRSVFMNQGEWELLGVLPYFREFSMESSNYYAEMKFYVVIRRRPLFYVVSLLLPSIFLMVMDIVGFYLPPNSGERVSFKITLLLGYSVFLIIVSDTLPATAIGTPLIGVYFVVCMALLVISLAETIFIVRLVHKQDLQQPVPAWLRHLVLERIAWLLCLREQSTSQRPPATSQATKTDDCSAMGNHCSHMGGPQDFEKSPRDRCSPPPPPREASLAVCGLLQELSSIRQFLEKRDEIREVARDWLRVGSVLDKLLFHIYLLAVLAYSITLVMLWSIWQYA
It counts as functional.

Assay [5] has as its target T2, Alpha-1A adrenergic receptor. It counts as functional, cell-based.
The next assay has as its target Histamine H2 receptor (Homo sapiens, UniProt P25021). It counts as functional, cell-based.
Assay [6] concerns the target 3',5'-cyclic-AMP phosphodiesterase 4D (Homo sapiens, UniProt Q08499). It counts as functional.
Further: assay procedure not described here.

Sequence of 3',5'-cyclic-AMP phosphodiesterase 4D (Q08499 whole entry): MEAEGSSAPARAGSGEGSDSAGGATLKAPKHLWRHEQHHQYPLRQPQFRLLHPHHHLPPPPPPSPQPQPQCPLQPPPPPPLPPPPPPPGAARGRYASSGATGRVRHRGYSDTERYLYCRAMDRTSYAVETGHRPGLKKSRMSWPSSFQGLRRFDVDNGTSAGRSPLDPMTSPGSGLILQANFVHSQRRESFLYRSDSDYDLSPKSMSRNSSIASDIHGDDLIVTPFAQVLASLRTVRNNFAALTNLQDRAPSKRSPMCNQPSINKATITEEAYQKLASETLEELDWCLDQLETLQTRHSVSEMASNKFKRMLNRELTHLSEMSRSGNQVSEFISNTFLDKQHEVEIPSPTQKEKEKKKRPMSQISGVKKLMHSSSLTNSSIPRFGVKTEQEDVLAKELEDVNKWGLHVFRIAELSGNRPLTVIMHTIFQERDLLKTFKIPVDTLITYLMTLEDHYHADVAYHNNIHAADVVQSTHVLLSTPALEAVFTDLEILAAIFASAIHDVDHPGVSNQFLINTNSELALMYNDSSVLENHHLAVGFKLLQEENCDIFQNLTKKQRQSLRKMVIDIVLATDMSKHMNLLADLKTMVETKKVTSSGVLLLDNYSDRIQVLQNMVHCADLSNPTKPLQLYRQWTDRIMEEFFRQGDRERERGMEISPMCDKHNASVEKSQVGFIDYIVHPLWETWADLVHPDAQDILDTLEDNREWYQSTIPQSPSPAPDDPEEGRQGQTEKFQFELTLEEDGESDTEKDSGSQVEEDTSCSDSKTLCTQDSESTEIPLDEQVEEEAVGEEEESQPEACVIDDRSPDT
Sequence of Mu-type opioid receptor (P35372 whole entry): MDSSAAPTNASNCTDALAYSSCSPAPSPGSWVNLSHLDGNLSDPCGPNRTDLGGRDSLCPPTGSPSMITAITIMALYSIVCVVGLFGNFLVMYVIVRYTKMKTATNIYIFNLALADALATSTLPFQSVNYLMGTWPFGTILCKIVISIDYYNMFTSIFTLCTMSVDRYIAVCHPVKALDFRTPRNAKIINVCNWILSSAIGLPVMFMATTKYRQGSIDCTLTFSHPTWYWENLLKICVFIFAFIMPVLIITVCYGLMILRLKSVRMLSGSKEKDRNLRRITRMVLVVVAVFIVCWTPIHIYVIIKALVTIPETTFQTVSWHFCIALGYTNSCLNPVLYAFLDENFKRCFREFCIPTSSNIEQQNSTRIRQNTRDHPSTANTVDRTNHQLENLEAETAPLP
Sequence of Sodium-dependent serotonin transporter (P31645 whole entry): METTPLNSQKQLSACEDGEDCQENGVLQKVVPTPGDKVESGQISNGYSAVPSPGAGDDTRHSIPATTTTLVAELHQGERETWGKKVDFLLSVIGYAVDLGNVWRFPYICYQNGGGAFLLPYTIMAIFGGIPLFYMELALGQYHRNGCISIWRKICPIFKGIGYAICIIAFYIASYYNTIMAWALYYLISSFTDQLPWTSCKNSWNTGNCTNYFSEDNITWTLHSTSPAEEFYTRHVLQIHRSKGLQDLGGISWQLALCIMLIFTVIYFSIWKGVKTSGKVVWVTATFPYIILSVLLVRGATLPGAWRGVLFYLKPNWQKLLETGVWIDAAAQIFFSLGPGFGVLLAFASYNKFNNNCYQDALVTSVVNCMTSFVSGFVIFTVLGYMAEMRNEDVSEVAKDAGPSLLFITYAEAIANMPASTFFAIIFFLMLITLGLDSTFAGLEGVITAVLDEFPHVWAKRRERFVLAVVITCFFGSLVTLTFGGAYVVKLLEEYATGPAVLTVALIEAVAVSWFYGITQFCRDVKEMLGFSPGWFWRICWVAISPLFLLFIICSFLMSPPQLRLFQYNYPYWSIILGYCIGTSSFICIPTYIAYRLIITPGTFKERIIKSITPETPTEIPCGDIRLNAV
Sequence of Cannabinoid receptor 1 (P21554 whole entry): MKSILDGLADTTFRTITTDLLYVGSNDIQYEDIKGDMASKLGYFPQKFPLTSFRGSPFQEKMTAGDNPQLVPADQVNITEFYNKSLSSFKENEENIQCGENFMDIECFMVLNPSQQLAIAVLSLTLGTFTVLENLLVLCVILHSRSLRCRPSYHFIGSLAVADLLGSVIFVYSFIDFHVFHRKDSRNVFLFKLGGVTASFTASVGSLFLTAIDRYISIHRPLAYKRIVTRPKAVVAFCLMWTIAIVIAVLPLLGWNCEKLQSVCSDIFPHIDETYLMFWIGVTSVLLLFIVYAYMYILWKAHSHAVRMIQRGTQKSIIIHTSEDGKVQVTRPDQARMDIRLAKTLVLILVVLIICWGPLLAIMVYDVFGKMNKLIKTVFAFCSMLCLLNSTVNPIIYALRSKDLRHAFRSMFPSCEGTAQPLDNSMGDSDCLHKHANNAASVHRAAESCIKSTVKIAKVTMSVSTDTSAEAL
Sequence of Melanocortin receptor 4 (P32245 whole entry): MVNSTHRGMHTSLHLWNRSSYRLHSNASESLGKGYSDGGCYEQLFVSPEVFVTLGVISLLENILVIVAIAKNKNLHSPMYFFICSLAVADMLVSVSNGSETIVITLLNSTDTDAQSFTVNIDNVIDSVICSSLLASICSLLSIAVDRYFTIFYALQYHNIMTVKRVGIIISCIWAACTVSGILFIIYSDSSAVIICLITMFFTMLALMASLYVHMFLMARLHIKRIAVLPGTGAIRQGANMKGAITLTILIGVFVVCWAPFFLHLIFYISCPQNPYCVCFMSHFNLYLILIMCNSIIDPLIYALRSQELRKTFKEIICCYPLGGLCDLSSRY
Sequence of Histamine H2 receptor (P25021 whole entry): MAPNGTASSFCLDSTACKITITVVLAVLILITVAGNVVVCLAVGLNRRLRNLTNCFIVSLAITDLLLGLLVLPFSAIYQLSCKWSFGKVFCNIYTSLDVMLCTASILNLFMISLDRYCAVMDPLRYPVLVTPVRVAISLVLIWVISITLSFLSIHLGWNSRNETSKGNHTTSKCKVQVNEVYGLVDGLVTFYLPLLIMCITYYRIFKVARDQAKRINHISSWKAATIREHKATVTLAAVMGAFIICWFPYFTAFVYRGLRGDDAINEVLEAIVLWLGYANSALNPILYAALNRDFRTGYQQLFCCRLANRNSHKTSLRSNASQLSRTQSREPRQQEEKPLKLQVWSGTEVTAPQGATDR

For the compound `CCCC(C)C1(CC)C(=O)NC(=O)NC1=O` (stereo not drawn) [PENTOBARBITAL], the concentration at half-maximal activity (AC50) in assay [1] was > 10 µM; in assay [2], > 10 µM; in [3], > 30 µM; on Thromboxane A2 receptor it was > 10 µM; at Mu-type opioid receptor it was > 30 µM; on Cannabinoid receptor 1, > 10 µM. In addition, the AC50 in assay [4] was > 30 µM; on Melanocortin receptor 4, > 10 µM; in assay [5], > 30 µM; at Histamine H2 receptor, > 30 µM; in assay [6], > 30 µM.
As to `CC[C@@H]1C(=O)OC[C@@H]1Cc1cncn1C` [PILOCARPINE], the AC50 in assay [1] was > 30 µM; in assay [2], > 30 µM; in assay [3], > 10 µM; on Thromboxane A2 receptor, > 30 µM; at Mu-type opioid receptor, > 30 µM; on Cannabinoid receptor 1 it was 16.1 µM. Also, the half-maximal activity concentration (AC50) in assay [4] is > 30 µM; at Melanocortin receptor 4, > 30 µM; in [5], > 30 µM; at Histamine H2 receptor it was > 10 µM; in assay [6], > 30 µM.
`O=C(O)C[C@H](O)C[C@H](O)/C=C/c1c(C2CC2)nc2ccccc2c1-c1ccc(F)cc1` [PITAVASTATIN]: the AC50 in [1] was > 10 µM; in [2], > 10 µM; in assay [3] it was > 10 µM; on Thromboxane A2 receptor it was > 10 µM; at Mu-type opioid receptor it was > 30 µM; at Cannabinoid receptor 1 it was > 10 µM. In addition, the AC50 in assay [4] was > 30 µM; at Melanocortin receptor 4, > 10 µM; in assay [5], > 30 µM; at Histamine H2 receptor, > 10 µM; in assay [6], 0.93 µM and 0.67 µM.
